Test results published in patent US20100152210A1, “PURINYL DERIVATIVES AND THEIR USE AS POTASSIUM CHANNEL MODULATORS” (NEURO SEARCH A/S/, priority 2007, published 2010).

Molecular target: T1, hSK3 channels (Homo sapiens, UniProt Q9UGI6)
T1 construct: expressed in transfected cells; host or cells: HEK293
Test: Whole-cell patch-clamp recording of SK3 current in HEK293 cells expressing hSK3 channels
Assay type: cell-based
Experimental: The ionic current through small-conductance Ca^2+-activated K^+ channels (SK channels, subtype 3) is recorded using the whole-cell configuration of the patch-clamp technique in a classic patch-clamp set-up using HEK293 tissue culture cells expressing hSK3 channels as described in e.g. WO 2006/100212.
The SC100 value determined is defined as the Stimulating Concentration required for increasing the baseline current by 100%. The below SC100 value is an indication of the SK3 activating properties of the compounds of the invention.

## Cc1cc(C)n(-c2nc(Nc3ccc(Cl)cc3)c3ncn(Cc4ccccc4)c3n2)n1 [Compound 9.1, [9-Benzyl-2-(3,5-dimethyl-pyrazol-1-yl)-9H-purin-6-yl]-(4-chloro-phenyl)-amine]
  The SC100 (Stimulating Concentration required for increasing the baseline current by 100%): 0.04 µM
